Experimental data: US20040023807A1, “3-Arylisothiazoles and their use as herbicides” (priority 2000, published 2004)

Experiments:
[1] = test system: velvet leaf (ABUTH); test: greenhouse herbicidal action, post-emergence treatment; format: in vivo; conditions: application rates of 15.6 and 31.3 g of a.s./ha
Description: (§1) The seeds of the test plants were sewn separately for each species. For the post-emergence treatment, the test plants were first grown to a height of from 3 to 15 cm, depending on the plant habit, and only then treated with the active compounds which had been suspended or emulsified in water. The test plants were for this purpose either sown directly and grown in the same containers, or they were first grown separately as seedlings and transplanted into the test containers a few days prior to treatment. The application rate for the post-emergence treatment was 31.3 and 15.6 g of a.s./ha. Depending on the species, the plants were kept at 10-25° C. or 20-35° C. The test period extended over 2 to 4 weeks. During this time, the plants were tended, and their response to the individual treatments was evaluated. The evaluation was carried out using a scale from 0 to 100. 100 means no emergence of the plants, or complete destruction of at least the above-ground parts, and 0 means no damage, or normal course of growth. The plants used in the greenhouse experiments were of the following species: [table]

[2] = test system: redroot pigweed (AMARE); test: as above; format: in vivo; conditions: application rates of 15.6 and 31.3 g of a.s./ha
Description: as §1

[3] = test system: morning glory (IPOSS); test: as above; format: in vivo; conditions: application rates of 15.6 and 31.3 g of a.s./ha
Description: as §1

[4] = test system: catchweed bedstraw (GALAP); test: as above; format: in vivo; conditions: application rates of 15.6 and 31.3 g of a.s./ha
Description: as §1

[5] = test system: dayflower (COMBE); test: as above; format: in vivo; conditions: application rates of 15.6 and 31.3 g of a.s./ha
Description: as §1

| Compound | melting point | herbicidal action [1] | herbicidal action [2] | herbicidal action [3] | herbicidal action [4] | herbicidal action [5] |
| --- | --- | --- | --- | --- | --- | --- |
| CS(=O)(=O)Nc1cc(-c2nsc(C(F)(F)F)c2Cl)c(Cl)cc1Cl [IAa.361, N-{2,4-Dichloro-5-[4-chloro-5-(trifluoromethyl)-3-isothiazolyl]-phenyl}methanesulfonamide] | 161 to 164 °C |  |  |  |  |  |
| COC(=O)C(C)Oc1cc(-c2nsc(C(F)(F)F)c2Cl)c(F)cc1Cl (stereo not shown) [IAa.727, Methyl 2-[2-chloro-4-fluoro-5-(4-chloro-5-trifluoromethylisothiazol-3-yl)phenoxy]propionate] |  | very good herbicidal action | very good herbicidal action | very good herbicidal action | very good herbicidal action | very good herbicidal action |
| FC(F)(F)c1snc(-c2c(Cl)cc(Cl)c3nc(C4CC4)oc23)c1Cl [IDa.67, 4,6-Dichloro-7-(4-chloro-5-trifluoromethyl-3-isothiazolyl)-2-cyclopropyl-1,3-benzoxazole] | 110 to 111 °C |  |  |  |  |  |
